The record followed here is patent US10933141B2, “Formulations with reduced degradation of polysorbate” (Genentech, Inc., priority 2015, dated 2021).

Data set [1] addresses T1, porcine pancreatic lipase (PPL) (Sus scrofa, UniProt P00591).
T1 construct: purchased Sigma Aldrich Inc. (St. Louis, Mo.)
T1 sequence (P00591 1-450): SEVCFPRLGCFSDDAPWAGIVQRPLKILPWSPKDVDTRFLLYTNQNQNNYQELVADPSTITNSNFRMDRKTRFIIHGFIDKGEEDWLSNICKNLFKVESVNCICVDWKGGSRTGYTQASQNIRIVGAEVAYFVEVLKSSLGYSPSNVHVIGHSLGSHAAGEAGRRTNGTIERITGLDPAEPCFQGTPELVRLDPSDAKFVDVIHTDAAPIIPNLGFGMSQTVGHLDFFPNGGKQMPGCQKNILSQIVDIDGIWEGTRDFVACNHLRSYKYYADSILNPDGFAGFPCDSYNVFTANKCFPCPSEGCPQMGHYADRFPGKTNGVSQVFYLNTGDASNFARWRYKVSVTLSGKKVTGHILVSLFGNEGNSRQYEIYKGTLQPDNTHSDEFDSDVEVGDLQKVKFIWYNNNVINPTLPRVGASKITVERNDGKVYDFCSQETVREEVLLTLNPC
Put plainly: Subvisible particle formation after PPL digestion of PS20 (HIAC). In kind it is physicochemical. The following applies: 0.02% PS20; 15 μg/mL PPL 4.5 hours, then 5° C. overnight; excipient 15% w/v (methionine 10 mg/mL). As for the experimental part: Subvisible particles were measured using a HIAC 9703 particle counter equipped with an HRDL-150 detector and a 1 mL syringe. Performance of the instrument was verified with NIST-traceable 2 μm Polystyrene bead standards at 3000 counts/mL before each measurement session. The HIAC instrument was configured to a 10 mL/min flow rate, 0.1 mL tare volume, and 0.4 mL sample volume. The samples were analyzed using 4 runs of 0.4 mL sips, with the first run of each sample was discarded to prevent measurement error due to sample carryover. Results were reported as the average values for 1.4, 2, 5, 10, 15, and 25, 50 μm analysis filter sizes.
(§1) Several excipients were tested for their ability to protect PS20 against enzymatic hydrolysis including HP-α-CD, HP-β-CD, HP-γ-CD, SBE-β-CD, PVP, PEG 1500, sucrose, and methionine. Solutions of each excipient in pH 5.5 buffer were prepared containing a final concentration of 0.02% PS20 after enzyme addition. The concentration of HP-α-CD, HP-β-CD, HP-γ-CD, and SBE-β-CD in the excipient solutions was 106 mM. […] The remaining excipients (PVP, PEG 1500, sucrose) were added to 15% w/v to match the % w/v of HP-β-CD. Samples were digested with 15 μg/mL PPL enzyme for 4.5 hours at room temperature, followed by 30 minutes of heat inactivation at 85° C. Each sample was analyzed for PS20 concentration using high performance liquid chromatography with an inline evaporative light scattering detector. Samples were then placed at 5° C. overnight to allow for the formation of particles and were analyzed for visible and subvisible particles as described previously.
(§2) The effect of the HP-β-CD concentration at different PS20 concentrations on the enzymatic degradation of PS20 was assessed to identify optimal concentrations for inhibition of enzymatic PS20 degradation. To evaluate the dependence of PS20 degradation on HP-β-CD concentration, the PS20 content was determined using RP-ELSD for triplicate samples containing different HP-β-CD concentrations at various PS20 concentrations. Samples containing 0.005% (FIG. 14A), 0.02% (FIG. 14B), 0.1% (FIG. 14C), and 0.4% PS20 (FIG. 14D) were digested using 15 μg/mL of PPL enzyme for 4.5 hours at room temperature in protein-free samples containing no excipient (control), 0, 0.5, 5, and 15% (w/v) HP-β-CD. PPL was added to each of the treatment solutions at a ratio of 75 […], with an equivalent volume of buffer added to the control solutions to determine the effect of HP-β-CD to polysorbate ratio on enzymatic degradation. Digestion was stopped by heat inactivation in an 85° C. water bath for 30 minutes. Each sample was analyzed for PS20 concentration using high performance liquid chromatography with an inline evaporative light scattering detector as described above. Samples were then placed at 5° C. overnight to allow for the formation of particles and placed on ice during analysis for visible and subvisible particles as described above.

Data set [2] concerns the target T1, porcine pancreatic lipase (PPL). Put plainly: Enzymatic degradation of PS20 by PPL, 4.5 hour digestion, PS20 by RP-ELSD. In kind it is biochemical. The following applies: 0.02% PS20; 15 μg/mL PPL 4.5 hours; excipient 15% w/v (methionine 10 mg/mL). On the procedure:
Polysorbate concentration was determined using reverse phase ultra-performance liquid chromatography using evaporative light scattering detection (RP-ELSD). Samples were analyzed using an Agilent 1100 series high performance liquid chromatography system (HPLC) fitted with a Waters Oasis MAX cartridge column (20×2.1 mm, 30 μm particle size). The HPLC system was set up with a switching valve directing column flow-through to either waste or a Varian 380-LC evaporative light scattering detector set to 100° C. The mobile phases consisted of 2% formic acid in water (Pump A) and 2% formic acid in isopropanol (Pump B). The pump gradient was isocratic at 10% pump B during equilibration, linear to 20% pump B for 1 minute, isocratic at 20% pump B for 2.4 minutes, linear to 100% pump B for 0.1 minutes, isocratic at 100% pump B for 1.1 minutes, linear to 10% pump B for 0.1 minutes, and finally isocratic at 10% pump B for 1.9 minutes. The switching valve directed column flow-through to waste at the beginning of every injection, and then directed flow to the detector after 2.4 minutes until the end of the gradient. In order to quantitate the PS20 concentration, a standard curve was generated by injecting 20 μL of solutions containing between 0% w/v and 0.4% w/v PS20.
as §1, §2

Entries after “also recorded” stand apart in the source; their conditions may differ.

As for `CSCC[C@H](N)C(=O)O` [methionine, reference compound], in data set [1], the “effect on SVP formation (in words)” value is listed as “did not have an inhibitory effect”. In data set [2], the “inhibitory effect on enzymatic PS20 degradation (in words)” value is reported as “did not have an inhibitory effect”.
Take “sulfobutyl ether β-cyclodextrin [SBE-β-CD]”: the “effect on SVP formation (in words)” value in data set [1] was “significant inhibitory effects”. Also, the “inhibitory effect on enzymatic PS20 degradation (in words)” value in data set [2] was “significant inhibitory effects; also recorded: able to prevent enzymatic degradation of PS20”.
